The supplement of paper PMC9334596
Counter-ions that a name gives are not always drawn.

System: mPer2Luc MEF
Test: PER2::LUC luminescence relative to vehicle control (fold of vehicle); higher = higher PER2::LUC reporter signal
In short: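 Embryonic fibroblasts from PER2::LUC knock-in reporter mice were grown in DMEM with 10% FBS at 37 °C and 5% CO2. Compounds were applied as a six-point threefold dilution series from 10 μM down to 0.04 μM, and luminescence was read 24 h and 30 h after treatment. The value is PER2::LUC luminescence expressed as fold of the vehicle-treated wells.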

[1] = time after treatment: 24-hour, concentration: 0.04μM
[2] = time after treatment: 24-hour, concentration: 0.37μM
[3] = time after treatment: 24-hour, concentration: 3.33μM
[4] = time after treatment: 24-hour, concentration: 10μM
[5] = time after treatment: 30-hour, concentration: 0.04μM
[6] = time after treatment: 30-hour, concentration: 0.37μM
[7] = time after treatment: 30-hour, concentration: 3.33μM
[8] = time after treatment: 30-hour, concentration: 10μM

Row | Structure (SMILES) | PER2::LUC luminescence [1] | PER2::LUC luminescence [2] | PER2::LUC luminescence [3] | PER2::LUC luminescence [4] | PER2::LUC luminescence [5] | PER2::LUC luminescence [6] | PER2::LUC luminescence [7] | PER2::LUC luminescence [8]
1 | O=C1c2ccccc2C(=O)c2oc(-c3ccccc3)nc21 [SJB2-043] | 1.11 | 1.29 | 1.94 | 1.65 | 1.17 | 1.2 | 1.36 | 1.11
2 | CCc1nc(-c2cccc(C)c2)c(-c2ccnc(NC(=O)c3ccccc3)c2)s1 [TAK 715] | 0.993 | 0.95 | 0.955 | 0.895 | 0.926 | 0.929 | 0.924 | 0.888
3 | O=c1sn(-c2cccc3ccccc23)c(=O)n1Cc1ccccc1 [Tideglusib] | 0.908 | 0.902 | 0.864 | 0.879 | 0.9 | 0.856 | 0.886 | 0.891
4 | CN1CCc2c(c3ccccc3n2Cc2ccc(C(=O)NO)cc2)C1 [Tubastatin A HCl] | 1.07 | 1.05 | 1.05 | 0.699 | 0.984 | 0.982 | 0.916 | 0.576
5 | NS(=O)(=O)c1ccc(NC(=O)Nc2ccc(F)cc2)cc1 [U-104] | 1.04 | 1.05 | 1.01 | 0.876 | 1.05 | 1.06 | 1.06 | 0.947
6 | C[C@H](NC(=O)/C(C#N)=C/c1cccc(Br)n1)c1ccccc1 [WP1066] | 1.1 | 1.03 | 1.14 | 0.142 | 1.02 | 1.02 | 0.891 | 0.13
7 | CCOc1cc(C(=O)N2CCC(N3CCN(C)CC3)CC2)ccc1Nc1ncc2c(n1)N(C1CCCC1)c1ccccc1C(=O)N2C [XMD17-109] | 0.79 | 0.698 | 0.241 | 0.049 | 0.796 | 0.664 | 0.285 | 0.055
8 | COc1cc(-c2nc3ccccc3s2)ccc1O [YL-109] | 1.05 | 1.08 | 1.31 | 1.39 | 1.13 | 1.16 | 1.42 | 1.53
9 | CC(C)(C)c1ccc(-c2nc3ccccc3[nH]2)cc1 [ZLN005] | 0.223 | 0.131 | 0.076 | 0.065 | 0.357 | 0.204 | 0.098 | 0.075
